Our source for the IC50 values is ChEMBL document CHEMBL1142123, “Guttiferones K and L, antiproliferative compounds of Rheedia calcicola from the Madagascar rain forest” (J Nat Prod, 2007).

For the experiment, the system named is A2780. Put plainly: Antiproliferative activity against human A2780 cells. Format: functional, cell-based.

Converted amounts (≈) assume the structure as drawn.

What is called IC50 is the point on the concentration scale where inhibition reaches its midpoint. Turning to `CC(C)=CCC[C@@]1(C)[C@H](CC=C(C)C)C[C@]2(CC=C(C)C)C(=O)[C@@]1(CC=C(C)C)C(=O)C(C(=O)c1cc(O)c(O)cc1O)=C2O` [GUTTIFERONE L], the IC50 worked out at 3 µg/mL (≈ 4.85 µM).
